According to PMC9687610, “Adenosine-Mimicking Derivatives of 3-Aminopyrazine-2-Carboxamide: Towards Inhibitors of Prolyl-tRNA Synthetase with Antimycobacterial Activity” (Biomolecules, 2022):
Converted amounts (≈) assume the structure as drawn. Like-named read-outs stand apart in the source and are kept apart here.

Tests used:
[1] = tested on: Mtb laboratory ID IZAK; conditions: Laboratory ID IZAK, cited from earlier work; for Susceptibility: CLSI breakpoints 2020; for Minimum inhibitory concentration: tested and interpreted according to CLSI breakpoints in 2020
[2] = tested on: Mycobacterium tuberculosis H37Ra ITM-M006710 (ATCC 9431); test: Microplate Alamar Blue Assay (MABA), Mtb H37Ra; format: cell-based; conditions: Middlebrook 7H9 broth pH 6.6, resazurin after 120 h; for MIC: Mycobacterium tuberculosis, 120 h, pH 6.6, MABA, read-out: Mtb H37Ra MIC; for Mtb H37Ra MIC: MABA
[3] = tested on: Mtb laboratory ID MATI; conditions: Laboratory ID MATI, cited from earlier work; for Susceptibility: CLSI breakpoints 2021; for Minimum inhibitory concentration: tested and interpreted according to CLSI breakpoints in 2021
[4] = tested on: Mycobacterium tuberculosis H37Rv CNCTC My 331/88 (ATCC 27294); test: MABA microdilution, Mtb H37Rv; format: cell-based
[5] = tested on: M. aurum DSM 43999 (ATCC 23366); test: Microplate Alamar Blue Assay (MABA), M. aurum; format: cell-based; conditions: MABA, resazurin after 72 h; for MIC: Mycolicibacterium aurum, read-out: M. aurum MIC
[6] = tested on: Candida krusei CCM 8271 (ATCC 6258); test: Antifungal microdilution broth (EUCAST), CK; format: cell-based; conditions: read after 24 h, read-out: CK MIC
[7] = tested on: Staphylococcus aureus subsp. aureus methicillin-resistant (MRSA) CCM 4750 (ATCC 43300); test: Antibacterial microdilution broth (EUCAST), MRSA; format: cell-based; conditions: read after 24 h, read-out: MRSA MIC
[8] = tested on: Enterococcus faecalis CCM 4224 (ATCC 29212); test: Antibacterial microdilution broth (EUCAST), EF; format: cell-based; conditions: read after 24 h, read-out: EF MIC
[9] = tested on: Candida tropicalis CCM 8264 (ATCC 750); test: Antifungal microdilution broth (EUCAST), CT; format: cell-based; conditions: read after 24 h, read-out: CT MIC
[10] = tested on: Escherichia coli CCM 3954 (ATCC 25922); test: Antibacterial microdilution broth (EUCAST), EC; format: cell-based; conditions: read after 24 h, read-out: EC MIC
[11] = tested on: Trichophyton interdigitale CCM 8377 (ATCC 9533); test: Antifungal microdilution broth (EUCAST), TI; format: cell-based
[12] = tested on: Pseudomonas aeruginosa CCM 3955 (ATCC 27853); test: Antibacterial microdilution broth (EUCAST), PA; format: cell-based; conditions: read after 24 h
[13] = tested on: Candida albicans CCM 8320 (ATCC 24433); test: Antifungal microdilution broth (EUCAST), CA; format: cell-based; conditions: read after 24 h, read-out: CA MIC
[14] = tested on: Lichtheimia corymbifera CCM 8077; test: Antifungal microdilution broth (EUCAST), LC; format: cell-based; conditions: read after 24 h, read-out: LC MIC
[15] = tested on: Candida parapsilosis CCM 8260 (ATCC 22019); test: Antifungal microdilution broth (EUCAST), CP; format: cell-based; conditions: read after 24 h, read-out: CP MIC
[16] = tested on: Staphylococcus aureus subsp. aureus CCM 4223 (ATCC 29213); test: Antibacterial microdilution broth (EUCAST), SA; format: cell-based; conditions: read after 24 h, read-out: SA MIC
[17] = tested on: Aspergillus fumigatus ATCC 204305; test: Antifungal microdilution broth (EUCAST), AF; format: cell-based; conditions: read after 24 h, read-out: AF MIC
[18] = tested on: Aspergillus flavus CCM 8363; test: Antifungal microdilution broth (EUCAST), AFla; format: cell-based; conditions: read after 24 h, read-out: AFla MIC
[19] = tested on: Klebsiella pneumoniae CCM 4415 (ATCC 10031); conditions: 24 h
[20] = tested on: Mycobacterium smegmatis DSM 43465 (ATCC 607); test: Microplate Alamar Blue Assay (MABA), M. smegmatis; format: cell-based; conditions: MABA, resazurin after 48 h; for MIC: Mycolicibacterium smegmatis, read-out: M. smegmatis MIC
[21] = tested on: Acinetobacter baumannii DSM 30007 (ATCC 19606); test: Antibacterial microdilution broth (EUCAST), ACI; format: cell-based; conditions: read after 24 h, read-out: ACI MIC
[22] = tested on: HepG2 human hepatocellular carcinoma cells; test: In vitro HepG2 cytotoxicity (CellTiter 96); conditions: for IC50: Homo sapiens, HepG2, 24 h, read-out: HepG2 IC50, 24 h incubation, * limit = highest evaluated concentration (precipitation in medium), ** over the 1000 µM limit
[23] = tested on: Klebsiella pneumoniae CCM 4415 (ATCC 10031); test: Antibacterial microdilution broth (EUCAST), KP; conditions: read after 24 h
[24] = tested on: Staphylococcus epidermidis CCM 4418 (ATCC 12228); test: Antibacterial microdilution broth (EUCAST), SE; format: cell-based; conditions: read after 24 h, read-out: SE MIC
[25] = Mycobacterium tuberculosis; read-out: Mtb H37Rv MIC

CC[C@@H](CO)NCCN[C@@H](CC)CO [EMB, ethambutol]
Susceptibility [1]: sensitive
Minimum inhibitory concentration [1]: 0.5 µg/mL (≈ 2.45 µM)
MIC [2]: 0.5 µg/mL (≈ 2.45 µM)
Susceptibility [3]: sensitive
Minimum inhibitory concentration [3]: 0.5 µg/mL (≈ 2.45 µM)
MIC [4, 25]: 0.39 µg/mL (≈ 1.91 µM)

NC(=O)c1cnccn1 [PZA, pyrazinamide]
Susceptibility [1]: resistant
Minimum inhibitory concentration [1]: > 16 µg/mL
Susceptibility [3]: resistant
Minimum inhibitory concentration [3]: > 128 µg/mL

[H]/N=C(/N)N[C@H]1[C@H](O)[C@@H](O)[C@H](O[C@@H]2O[C@@H](C)[C@](O)(C=O)[C@H]2O[C@@H]2O[C@@H](CO)[C@H](O)[C@@H](O)[C@@H]2NC)[C@@H](N/C(N)=N\[H])[C@@H]1O [STM, streptomycin]
Susceptibility [1]: resistant
Minimum inhibitory concentration [1]: 4 µg/mL (≈ 6.88 µM)
MIC [2]: 0.5 µg/mL (≈ 0.86 µM)
Susceptibility [3]: resistant
Minimum inhibitory concentration [3]: > 16 µg/mL

COC(=O)c1nccnc1NC(=O)c1ccccc1 [Compound 1e]
M. aurum MIC [5]: 250 µg/mL
MIC [6]: > 500 µM
MIC [7]: > 500 µM
MIC [8]: > 500 µM
MIC [9]: > 500 µM
MIC [10]: > 500 µM
TI MIC ([11]; read after 72 h): > 500 µM
PA MIC [12]: > 500 µM
MIC [13]: > 500 µM
Mtb H37Ra MIC [2]: ≥ 500 µg/mL
MIC [14]: > 500 µM
MIC [15]: > 500 µM
MIC [16]: > 500 µM
MIC [17]: > 500 µM
MIC [18]: > 500 µM
KP MIC [19]: > 500 µM
M. smegmatis MIC [20]: 125 µg/mL
MIC [21]: > 500 µM

NNC(=O)c1ccncc1 [INH, isoniazid]
MIC [5]: 3.91 µg/mL (≈ 28.5 µM)
Mtb H37Ra MIC [2]: 0.25 to 0.5 µg/mL
MIC [2]: 0.25 µg/mL (≈ 1.82 µM)
Susceptibility [3]: resistant
MIC [4, 25]: 0.2 µg/mL (≈ 1.46 µM)
IC50 [22]: > 1000 µM
MIC [20]: 15.6 µg/mL (≈ 114 µM)

NC(=O)c1nccnc1NC(=O)c1ccc(Br)cc1 [Compound 18]
MIC [5]: ≥ 250 µg/mL
MIC ([6]; Pichia kudriavzevii): > 125 µM
MIC ([7]; Staphylococcus aureus): > 500 µM
MIC ([8]; Enterococcus faecalis): > 500 µM
MIC ([9]; Candida tropicalis): > 125 µM
MIC ([10]; Escherichia coli): > 500 µM
MIC ([11]; Trichophyton interdigitale, 72 h, read-out: TI MIC): > 125 µM
MIC ([12]; Pseudomonas aeruginosa, read-out: PA MIC): > 500 µM
MIC ([13]; Candida albicans): > 125 µM
MIC [2]: 1.95 µg/mL (≈ 6.07 µM)
MIC ([14]; Lichtheimia corymbifera, CCM8077): > 125 µM
MIC ([15]; Lodderomyces parapsilosis): > 125 µM
MIC ([4]; Mycobacterium tuberculosis, read-out: Mtb H37Rv MIC): 6.25 µg/mL (≈ 19.5 µM)
MIC ([16]; Staphylococcus aureus): > 500 µM
MIC ([17]; Aspergillus fumigatus, ATCC204305): > 125 µM
KP MIC [23]: > 500 µM
solubility in the testing medium (in words) ([22]; HepG2 cell culture medium): low solubility
IC50 [22]: > 25 µM
MIC ([18]; Aspergillus flavus, CCM8363): > 125 µM
MIC [24]: > 500 µM
MIC [20]: 125 µg/mL (≈ 389 µM)
MIC ([21]; Acinetobacter baumannii): > 500 µM

CO[C@H]1/C=C/O[C@@]2(C)Oc3c(C)c(O)c4c(O)c(c(/C=N/N5CCN(C)CC5)c(O)c4c3C2=O)NC(=O)/C(C)=C\C=C\[C@H](C)[C@H](O)[C@@H](C)[C@@H](O)[C@@H](C)[C@H](OC(C)=O)[C@@H]1C [RIF, rifampicin]
MIC [5]: 0.39 µg/mL (≈ 0.474 µM)
Susceptibility [1]: resistant
Minimum inhibitory concentration [1]: > 8 µg/mL
MIC [2]: 0.003 µg/mL (≈ 0.00365 µM)
Susceptibility [3]: resistant
Minimum inhibitory concentration [3]: > 8 µg/mL
IC50 [22]: > 500 µM
MIC [20]: 12.5 µg/mL (≈ 15.2 µM)
